Measurements reported in patent US20170037471A1, “METHODS FOR DIAGNOSING & TREATING COPPER-DEPENDENT DISEASES” (Duke University, priority 2013, published 2017).
Residues, ends and D or L forms follow the SMILES beside them. *: point of attachment. Cbz = O=C(OCc1ccccc1)*; CHN2 = [N-]=[N+]=C*; tBu = CC(C)(C)*

How the values were obtained:
Ctr1 cleavage = Ctr1 cleavage in wild type and Cathepsin L-/- mouse embryonic fibroblasts, anti-Ctr1 immunoblot; format: cell-based; details: 10 μM, 16 hours, immunoblot (FIG. 7)
Procedure: Mouse embryonic fibroblasts from wild type and CatL^−/− littermates were cultured in medium supplemented with 10% fetal bovine serum and treated with DMSO or 10 μM of the cell permeable cysteine protease inhibitor E64d and harvested 16 hours later. Total proteins were isolated from the cells by homogenizing cells in ice cold PBS supplemented with 1% Triton-X, 0.1% SDS, and 1 mM EDTA. Cell debris was removed by centrifugation and the total amounts of soluble proteins were quantified in each sample. Equal amounts of proteins were separated on tris/glycine gradient gel, transferred to nitrocellulose membrane and blocked with 5% non-fat milk in Tris buffered saline supplemented with 0.05% Tween (TBST) for 1 h. Membranes were incubated with anti-Ctr1 antibody (1:1000) followed by anti-rabbit-HRP coupled antibody (1:5000) and bands detected by enhanced chemiluminescent substrate. Anti-Tubulin antibody was used as loading control.
Lanes 1 and 2 are duplicate samples from untreated wild type cells and lanes 5 and 6 are duplicate samples from untreated Cathepsin L knock out cells.

[1] = tested on: human Ctr1 protein containing the proline to alanine substitution at position 25 (Ctr1^P25A); assay: Ctr1^P25A cleavage protection in stably transfected Ctr1-/- mouse embryonic fibroblasts, anti-Ctr1 immunoblot; format: cell-based; details: Ctr1-/- MEFs expressing human Ctr1^P25A, 10 μM, 16 hours, immunoblot (FIG. 8)
Procedure: Mouse embryonic fibroblasts from Ctr1^−/− embryos were stably transfected with plasmids expressing either the wild type human Ctr1 protein or the human Ctr1 protein containing the proline to alanine substitution at position 25 (Ctr1^P25A). Cells were cultured in medium supplemented with 20% fetal bovine serum and treated with DMSO or 10 μM cysteine protease […], Z-FY(t-Bu)-DMK and harvested 16 hours later. Total proteins were isolated from the cells by homogenizing cells in ice cold PBS supplemented with 1% Triton-X, 0.1% SDS, and 1 mM EDTA. Cell debris was removed by centrifugation and the total amounts of soluble proteins were quantified in each sample. Equal amounts of proteins were separated on tris/glycine gradient gel, transferred to nitrocellulose membrane and blocked with 5% non-fat milk in Tris buffered saline supplemented with 0.05% Tween (TBST) for 1 h. Membranes were incubated with anti-Ctr1 antibody (1:1000) followed by anti-rabbit-HRP coupled antibody (1:5000) and bands detected by enhanced chemiluminescent substrate. Anti-Actin antibody was used as loading control.

Compound | levels of cleaved Ctr1 (Ctr1 cleavage; Cathepsin L knock out MEFs) | levels of cleaved Ctr1 (Ctr1 cleavage; wild type MEFs) | reduction in full length form of Ctr1^P25A [1]
CCOC(=O)[C@H]1O[C@@H]1C(=O)N[C@@H](CC(C)C)C(=O)NCCC(C)C (relative stereo) [E64d, (2S,3S)-trans-Epoxysuccinyl-L-leucylamido-3-methylbutane ethyl ester] | not Cathepsin L knock out cells | dramatic reduction in the levels of cleaved Ctr1 | –
CC(C)(C)Oc1ccc(CC(NC(=O)C(Cc2ccccc2)NC(=O)OCc2ccccc2)C(=O)C=[N+]=[N-])cc1 (stereo not drawn) [Z-FY(t-Bu)-DMK, benzyl (1-((1-(4-(tert-butoxy)phenyl)-4-diazo-3-oxobutan-2-yl)amino)-1-oxo-3-phenylpropan-2-yl)carbamate] (Cbz-Phe-Tyr(tBu)-CHN2; configuration not given here) | – | – | can be alleviated by treatment with Cathepsin L inhibitors
